The source of these data is article PMC4225009, “Structure-activity-relationship study of N-acyl-N-phenylpiperazines as potential inhibitors of the Excitatory Amino Acid Transporters (EAATs): improving the potency of a micromolar screening Hit is not truism” (SpringerPlus, 2013).

Holding throughout (assay type): cell-based
For test [1], the target named is T1, human EAAT1 (Homo sapiens, UniProt P43003).
T1 construct: expressed in transfected cells
In words: [3H]-D-aspartate uptake assay at HEK293 cells stably expressing human EAAT1. An excerpt:
(§1) In total, […] piperazine analogs 2.1-2.40 and 3.1-3.12 were characterized pharmacologically at stable HEK293 cells expressing human EAAT1-3 in a [^3H]-D-aspartate uptake assay, (Jensen & Bräuner-Osborne [2004]) and the results are summarized in Table 1 and Table 2. […] Usually, such findings would lead to the conclusion that the bicyclo-[2.2.1]-heptanyl group occupies a promiscuous hydrophobic pocket, which could be optimized for increased potency. However, upon increasing or decreasing the hydrophobic bulk and/or flexibility, a clear drop in potency was observed (analogs 2.1-2.17, Table 1). […] These findings could open up for the hypothesis that the pocket is indeed not hydrophobic but instead hydrophilic in nature. Upon binding of the hydrophobic alkane group, water molecules are forced out and ligand binding is entropically driven rather than enthalpically. Thus analogs 2.18-2.31, which comprise a hydrophobic group, could be potential inhibitors.
(§2) Analogs 2.22-2.31, 2.36-2.40, 3.3, 3.4, 3.6 and 3.12 were obtained as 5 mg portions pre-dissolved in DMSO from ChemBridge corporation and used directly in the [3H]-Asp-uptake assay.

Test [2] addresses T2, human EAAT2 (Homo sapiens, UniProt P43004).
T2 construct: expressed in transfected cells
Put plainly: [3H]-D-aspartate uptake assay at HEK293 cells stably expressing human EAAT2.
Excerpt: as §1, §2

In test [3] the target is T3, human EAAT3 (Homo sapiens, UniProt P43005).
T3 construct: expressed in transfected cells
T3 sequence (P43005 1-524): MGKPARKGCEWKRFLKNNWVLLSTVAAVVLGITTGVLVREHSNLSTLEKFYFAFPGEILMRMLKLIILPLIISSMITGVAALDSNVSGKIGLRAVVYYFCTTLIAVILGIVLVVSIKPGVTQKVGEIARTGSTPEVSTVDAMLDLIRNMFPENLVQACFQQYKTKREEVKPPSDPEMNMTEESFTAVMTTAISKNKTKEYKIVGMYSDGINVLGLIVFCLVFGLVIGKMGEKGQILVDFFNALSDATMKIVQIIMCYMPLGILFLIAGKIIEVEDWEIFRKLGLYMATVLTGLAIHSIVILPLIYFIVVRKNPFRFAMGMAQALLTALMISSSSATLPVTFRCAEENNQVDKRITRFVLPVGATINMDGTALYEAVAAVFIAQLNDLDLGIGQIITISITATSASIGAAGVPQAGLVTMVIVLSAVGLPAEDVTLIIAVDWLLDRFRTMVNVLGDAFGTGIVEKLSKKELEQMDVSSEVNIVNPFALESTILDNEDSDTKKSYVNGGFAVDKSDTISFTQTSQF
Put plainly: [3H]-D-aspartate uptake assay at HEK293 cells stably expressing human EAAT3.
Excerpt: as §1, §2

For test [4], the system named is human EAAT1-3. Put plainly: [3H]-D-aspartate uptake assay, statements made for EAAT1-3 together. The note with it: HEK293 cells expressing human EAAT1-3, [3H]-D-aspartate uptake.
Excerpt: as §1, §2

[5] abbreviates: [3H]-D-aspartate uptake, HEK293 cells stably expressing human EAAT1, analogs 1 and 2.1-2.40 (Table 1), read-out: EAAT1 IC50.
The mark [6] stands for this setting: [3H]-D-aspartate uptake, HEK293 cells stably expressing human EAAT2, analogs 1 and 2.1-2.40 (Table 1), read-out: EAAT2 IC50.
[7] abbreviates: [3H]-D-aspartate uptake, HEK293 cells stably expressing human EAAT3, analogs 1 and 2.1-2.40 (Table 1), read-out: EAAT3 IC50.
The mark [8] stands for this setting: D-aspartate uptake, HEK293 cells stably expressing human EAAT1, analogs 3.1-3.12 (Table 2), read-out: EAAT1 IC50.
Setting [9] is: D-aspartate uptake, HEK293 cells stably expressing human EAAT2, analogs 3.1-3.12 (Table 2), read-out: EAAT2 IC50.
Where [10] appears, read: D-aspartate uptake, HEK293 cells stably expressing human EAAT3, analogs 3.1-3.12 (Table 2), read-out: EAAT3 IC50.

Molecules are shown by their SMILES. Like-named read-outs stand apart in the source and are kept apart here.

T1 sequence (P43003 whole entry): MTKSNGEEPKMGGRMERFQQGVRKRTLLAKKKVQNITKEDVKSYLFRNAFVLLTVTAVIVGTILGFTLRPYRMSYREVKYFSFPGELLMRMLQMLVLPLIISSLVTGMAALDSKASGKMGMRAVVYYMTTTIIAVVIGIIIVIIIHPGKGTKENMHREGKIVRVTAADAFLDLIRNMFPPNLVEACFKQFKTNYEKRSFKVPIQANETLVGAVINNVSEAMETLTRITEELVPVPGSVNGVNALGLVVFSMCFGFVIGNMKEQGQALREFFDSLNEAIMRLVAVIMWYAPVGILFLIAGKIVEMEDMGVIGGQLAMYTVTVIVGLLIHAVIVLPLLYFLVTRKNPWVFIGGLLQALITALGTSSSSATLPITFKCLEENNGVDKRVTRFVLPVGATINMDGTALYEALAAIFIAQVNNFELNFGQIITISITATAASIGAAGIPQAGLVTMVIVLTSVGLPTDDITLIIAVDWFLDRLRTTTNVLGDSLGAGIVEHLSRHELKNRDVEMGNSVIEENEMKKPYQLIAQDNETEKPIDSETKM
T2 sequence (P43004 whole entry): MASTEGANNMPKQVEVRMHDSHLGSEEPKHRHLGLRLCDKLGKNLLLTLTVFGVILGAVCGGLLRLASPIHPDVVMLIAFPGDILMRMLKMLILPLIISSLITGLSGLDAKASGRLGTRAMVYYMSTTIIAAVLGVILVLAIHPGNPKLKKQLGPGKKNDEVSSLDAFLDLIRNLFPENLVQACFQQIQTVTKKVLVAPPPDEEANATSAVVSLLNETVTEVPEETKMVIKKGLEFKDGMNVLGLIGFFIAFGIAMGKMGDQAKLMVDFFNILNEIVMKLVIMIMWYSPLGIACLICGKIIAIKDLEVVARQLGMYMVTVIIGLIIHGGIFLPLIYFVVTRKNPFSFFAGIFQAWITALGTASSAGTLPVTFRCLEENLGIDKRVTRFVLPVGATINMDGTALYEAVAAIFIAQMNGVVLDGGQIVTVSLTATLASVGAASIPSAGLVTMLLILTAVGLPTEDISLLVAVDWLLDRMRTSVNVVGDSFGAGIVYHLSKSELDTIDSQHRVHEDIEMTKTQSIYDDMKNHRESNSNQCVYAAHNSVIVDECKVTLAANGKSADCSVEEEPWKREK

For `CC(C)CC(=O)N1CCN(c2cccc(C(F)(F)F)c2)CC1` [2.8, 3-Methyl-1-(4-(3-(trifluoromethyl)phenyl)piperazin-1-yl)butan-1-one], the IC50 in test [1] (setting [5]), in test [2] (setting [6]) and in test [3] (setting [7]) was greater than 300 µM throughout.

Turning to `NCC(=O)N1CCN(c2cccc(C(F)(F)F)c2)CC1` [2.20, 2-Amino-1-(4-(3-(trifluoromethyl)phenyl)piperazin-1-yl)ethanone], the IC50 in test [1], in test [2] and in test [3] was greater than 300 µM each time.

On to `CC(C)(C)CC(=O)N1CCN(c2cccc(C(F)(F)F)c2)CC1` [2.9, 3,3-Dimethyl-1-(4-(3-(trifluoromethyl)phenyl)piperazin-1-yl)butan-1-one], for which the IC50 in test [1] (setting [5]), in test [2] (setting [6]) and in test [3] (setting [7]) was greater than 300 µM in each case.

For `O=C(Cc1ccccc1)N1CCN(c2cccc(C(F)(F)F)c2)CC1` [2.17, 1-(4-(3-(Trifluoromethyl)phenyl)piperazin-1-yl)-2-phenylethanone], the results for the IC50 in test [1], in test [2] and in test [3] were greater than 300 µM, greater than 300 µM and greater than 1000 µM, respectively.

As for `COc1cccc(N2CCN(C(=O)C3CC4CCC3C4)CC2)c1` (racemic) [(±)-endo-exo-3.10, (±)-endo-exo-Bicyclo[2.2.1]heptan-2-yl(4-(3-methoxyphenyl)piperazin-1-yl)methanone], the IC50 in test [1] (setting [8]), in test [2] (setting [9]) and in test [3] (setting [10]) was greater than 300 µM in each case.

Consider `O=C(c1cccs1)N1CCN(c2cccc(C(F)(F)F)c2)CC1` [2.16, Thiophen-2-yl(4-(3-(trifluoromethyl)phenyl)piperazin-1-yl)methanone], for which the IC50 in test [1], in test [2] and in test [3] was greater than 100 µM throughout.

Turning to `FC(F)(F)c1cccc(N2CCN(Cc3ccccc3)CC2)c1` [2.35, 1-Benzyl-4-(3-(trifluoromethyl)phenyl)piperazine], the values for the IC50 in test [1], in test [2] and in test [3] were greater than 300 µM, greater than 300 µM and greater than 1000 µM, respectively.

On to `N#Cc1cccc(N2CCN(C(=O)C3CC4CCC3C4)CC2)c1` (racemic) [(±)-endo-exo-3.9, 3-(4-(bicyclo[2.2.1]heptane-2-carbonyl)piperazin-1-yl)benzonitrile], for which the IC50 in test [1] (setting [8]), in test [2] (setting [9]) and in test [3] (setting [10]) was greater than 300 µM each time.

In the case of `O=C(N1CCN(c2cccc(C(F)(F)F)c2)CC1)C12CC3CC(CC(C3)C1)C2` [2.2, Adamantan-1-yl(4-(3-(trifluoromethyl)phenyl)piperazin-1-yl)methanone], the IC50 in test [1], in test [2] and in test [3] was greater than 300 µM each time.

For `O=C(C1CC2CCC1C2)N1CCN(c2cccc(Cl)c2)CC1` (racemic) [(±)-endo-exo-3.7, (±)-endo-exo-Bicyclo[2.2.1]heptan-2-yl(4-(3-chlorophenyl)piperazin-1-yl)methanone], the IC50 is roughly 300 µM in test [1] (setting [8]), roughly 300 µM in test [2] (setting [9]) and greater than 300 µM in test [3] (setting [10]).

For the molecule `O=C(c1cccc2ccccc12)N1CCN(c2cccc(C(F)(F)F)c2)CC1` [2.15, Naphthalen-1-yl(4-(3-(trifluoromethyl)phenyl)piperazin-1-yl)methanone], the IC50 in test [1], in test [2] and in test [3] was greater than 300 µM each time.

As to `FC(F)(F)c1cccc(N2CCN(CC3CC4CCC3C4)CC2)c1` (mixture of isomers) [(±)-endo-exo-2.34, (±)-endo-exo-Bicyclo[2.2.1]heptan-2-ylmethyl)-4-(3-(trifluoromethyl)phenyl)piperazine], the IC50 in test [1] (setting [5]), in test [2] (setting [6]) and in test [3] (setting [7]) was greater than 300 µM each time.

For `CC(C)CCC(=O)N1CCN(c2cccc(C(F)(F)F)c2)CC1` [2.10, 4-Methyl-1-(4-(3-(trifluoromethyl)phenyl)piperazin-1-yl)pentan-1-one], the IC50 in test [1] (setting [5]), in test [2] (setting [6]) and in test [3] (setting [7]) was greater than 300 µM in each case.

On to `Nc1cccc(C(=O)N2CCN(c3cccc(C(F)(F)F)c3)CC2)c1` [2.19, 3-Aminophenyl-(4-(3-(trifluoromethyl)phenyl)piperazin-1-yl)methanone], for which the IC50 in test [1], in test [2] and in test [3] was greater than 300 µM in each case.

As for `O=C(c1cccc(Oc2ccccc2)c1)N1CCN(c2cccc(C(F)(F)F)c2)CC1` [2.13, (3-Phenoxyphenyl)(4-(3-(trifluoromethyl)phenyl)piperazin-1-yl)methanone], the IC50 in test [1] (setting [5]), in test [2] (setting [6]) and in test [3] (setting [7]) was greater than 300 µM each time.

Regarding `Nc1ccc(C(=O)N2CCN(c3cccc(C(F)(F)F)c3)CC2)cc1` [2.18, 4-Aminophenyl-(4-(3-(trifluoromethyl)phenyl)piperazin-1-yl)methanone], the IC50 in test [1], in test [2] and in test [3] was greater than 300 µM throughout.

As to `O=C(C1CC2CCC1C2)N1CCN(c2cccc(C(F)(F)F)c2)CC1` (racemic) [(±)-endo-exo-1, (±)-endo-exo-Bicyclo[2.2.1]heptan-2-yl(4-(3-(trifluoromethyl)phenyl)piperazin-1-yl)methanone], the IC50 stood at 14 µM in test [1] (setting [5]), 42 µM in test [2] (setting [6]) and 14 µM in test [3] (setting [7]). Also, in test [1] (value in brackets, Table 1), the “EAAT1 pIC50 ± S.E.M.” value is 4.87 ± 0.08. Besides, the “EAAT2 pIC50 ± S.E.M.” value in test [2] (value in brackets, Table 1) came to 4.42 ± 0.11. Besides, in test [3] (value in brackets, Table 1), the “EAAT3 pIC50 ± S.E.M.” value is given as 4.94 ± 0.16.

For the molecule `CC(=O)N1CCN(c2cccc(C(F)(F)F)c2)CC1` [2.7, 1-(4-(3-(Trifluoromethyl)phenyl)piperazin-1-yl)ethanone], the IC50 was greater than 1000 µM in test [1] (setting [5]), greater than 100 µM in test [2] (setting [6]) and greater than 100 µM in test [3] (setting [7]).

As for `O=C(C1CCCC1)N1CCN(c2cccc(C(F)(F)F)c2)CC1` [2.4, Cyclopentyl(4-(3-(trifluoromethyl)phenyl)piperazin-1-yl)methanone], the IC50 in test [1], in test [2] and in test [3] was greater than 300 µM throughout.

For `O=C(C1CC2CCC1CC2)N1CCN(c2cccc(C(F)(F)F)c2)CC1` (centres unmarked) [2.1, Bicyclo[2.2.2]octan-2-yl(4-(3-(trifluoromethyl)phenyl)piperazin-1-yl)methanone], the IC50 in test [1] (setting [5]), in test [2] (setting [6]) and in test [3] (setting [7]) was greater than 300 µM each time.

Take `O=C(C1CC2CCC1C2)N1CCN(c2ccc(F)cc2F)CC1` (racemic) [(±)-endo-exo-3.11, (±)-endo-exo-Bicyclo[2.2.1]heptan-2-yl(4-(2,4-difluorophenyl)piperazin-1-yl)methanone]: the IC50 in test [1] (setting [8]), in test [2] (setting [9]) and in test [3] (setting [10]) was greater than 300 µM in each case.

Turning to `O=C(C1CC1)N1CCN(c2cccc(C(F)(F)F)c2)CC1` [2.5, Cyclopropyl(4-(3-(trifluoromethyl)phenyl)piperazin-1-yl)methanone], the IC50 in test [1] (setting [5]), in test [2] (setting [6]) and in test [3] (setting [7]) was greater than 300 µM in each case.

Consider `CC(C)(C)C(=O)N1CCN(c2cccc(C(F)(F)F)c2)CC1` [2.6, 2,2-Dimethyl-1-(4-(3-(trifluoromethyl)phenyl)piperazin-1-yl)propan-1-one], for which the IC50 in test [1] is greater than 1000 µM; in test [2], greater than 300 µM; in test [3] it was greater than 300 µM.

For the molecule `O=C(C1CC2CCC1C2)N1CCN(c2cccc(C(F)(F)F)c2)CC1` (mixture of isomers) [(±)-exo-1], the IC50 in test [1] (setting [5]) was 10 µM; in test [1] (value in brackets, Table 1, read-out: EAAT1 pIC50 ± S.E.M. (converted)) it was 9.33 µM; in test [2] (setting [6]), 40 µM; in test [2] (value in brackets, Table 1, read-out: EAAT2 pIC50 ± S.E.M. (converted)) it was 36.3 µM. In addition, the “inhibitory activity at EAAT1-3 (in words)” value in test [4] is listed as “IC50 values at the three transporters in the mid-micromolar range”.
